The text below walks through data of patent US11484576B2, “Methods of promoting corticospinal neuronal outgrowth in neuronal lesions using a pro-regenerative human osteopontin fragment” (THE CHILDREN'S MEDICAL CENTER CORPORATION, priority 2017, dated 2022).

The test system of data set [1] is mice with T10 lateral hemisection. Briefly: Irregular ladder walking after spinal cord T10 lateral hemisection. The settings on record: for performance in irregular ladder, overground, or treadmill walking: injured mice with AAV-OPN/IGF1 or AAV-PLAP, 14 weeks post injury, i.p., quipazine 0.2 mg/kg, 8-OH-DPAT 0.1 mg/kg, SKF 0.1 mg/kg; for error rate, irregular walking task, denervated hindlimb: 12 weeks after injury, AAV injected into sensorimotor cortex 1 day after injury. Format: in vivo, mouse. How it is done:
(§1) Injury Models. […] Briefly, a midline incision was made over the thoracic vertebrae, followed by a T10 laminectomy. The unilateral hemisection was then performed carefully using both scalpel and micro-scissors, avoiding, to the greatest extent, the damage of the spinal cord dura. The muscle layers were then sutured and the skin was secured with wound clips. All mice received post hoc histological analysis and those with spared CST axons (incomplete lateral hemisection) or with significant less CST axons on the contra-lesional side (over lateral hemisection) at the lumbar spinal cord (L3), exemplified in FIG. 9A, were excluded for behavioral analysis.
Virus and Protein Injection.
Irregular Ladder Walking. […] Briefly, the ladder was elevated 30 cm above the ground. […] To prevent animals from learning the pattern, the irregular pattern was changed from trial to trial. All trials were video recorded (Hotshot e64, 100 fps) and paw placement was analyzed twice by blinded observers. Steps with precise placement of the center of the palm on the rung (for both forelimbs and hindlimbs) and digits closed (for forelimbs) were defined as correct steps (hit). All other steps were recorded as errors, which included two types: 1) Miss: when crossing the ladder, the forelimb/hindlimb either completely miss the rung or contact the rung with the wrist/heel instead of the paw; 2) Slip: when crossing the ladder, the mice use a few digits instead of the paw to place on the rungs, causing the subsequent slip on the rungs. The results were expressed as both percentage of total errors and percentage of different placement categories (hit, miss and slip).
(§2) Pharmacological Treatment. […] All behavioral tests were then accomplished between 1-3 hours post administration.

Data set [2] has the same test system. Nature of the data set: Ground walking and treadmill walking after T10 lateral hemisection. It is filed as in vivo, mouse. The settings on record: i.p. How it is done: as §1, §2
Data set [3] has as its system injured mice. Briefly: Adverse effects of systemic potassium channel blockers in injured mice. To be noted: doses above 1 mg/kg (3 mg/kg tested), injured mice. It is filed as in vivo. How it is done:
Chemicals and Antibodies. For systematic administration (i.p.), Quipazine [Sigma (Q1004), 0.2 mg/kg), SKF-82197 [Tocris (1447) 0.1 mg/kg], and 8-OH-DPAT [Tocris (0529), 0.1 mg/kg), 4AP [Sigma (275875), 1 mg/kg, 3 mg/kg), 4AP-MeOH [Santa Cruz (sc-267247), (1 mg/kg)] were dissolved in saline. Tamoxifen (Sigma, 10540-29-1) was dissolved in oil. For diphtheria toxin mediated cell ablation, we purchased the diptheria toxin from Sigma (D0564). For immunostaining, the primary antibody used were chicken anti-GFP [Abcam (Cat: ab13970)], rabbit anti-RFP [Abcam (Cat: ab34771)], rabbit anti-PKCγ [Santa Cruz (sc211)], rabbit anti-GFAP [DAKO (Z0334)]; rabbit anti-5-HT [Immunostar (20080)], rabbit-anti-IGFR [Santa Cruz (sc-712)] rabbit-anti-pIGFR[3 [Cell signaling technology (3024)], rabbit-anti-pS6 [Cell signaling technology (4857)], rat anti-CD68 [Bio-Rad (MCA 1957)], and Guinea pig-anti-Vglut1 [Synaptic Systems (135304)].
Pharmacological Treatment. […] A pilot experiment was performed and determined that 4AP (1 mg/kg, 3 mg/kg) and 4AP-MeOH (1 mg/kg) achieved their maximal effects within 1-3 hours post systematic administration (i.p.). […]

The subject of data set [4] is optic nerve axons. Nature of the data set: Optic nerve axon regeneration after optic nerve crush. It is filed as in vivo, mouse. As for the experimental part: The effects of various forms of active OPN were assessed for their capacity to promote optic nerve axon regeneration in an induced injury model. To express the various forms of active OPN AAVs expressing all forms of mouse OPN were injected intravitreally in anesthetized mice. To induce the injury model the optic nerves were crushed using a pair of forceps two weeks after intravitreal injection. Recombinant proteins (CNTF, IGF1, BDNF) were injected at 0 and 7 days after the crush (1 ul each, 1 ug/ul). Fluorescent cholera toxin beta subunit (CTB-555) was injected intravitreally 12 days after crush to trace the axons before the tissues were fixed 14 days after crush, sectioned and imaged.

Data set [5] relates to p-S6. Briefly: phospho-S6 immunostaining (mTOR activation) in corticospinal neurons after cortical injection of recombinant proteins, T10 lateral hemisection. It is filed as in vivo, mouse. To be noted: intact and axotomized CSNs; recombinant proteins injected into cortex. An excerpt:
(§3) However, it is unknown whether IGF1 triggers similar signaling activation in adult CSNs and, if so, whether it could be altered by OPN treatment. Thus CSNs were labeled by spinal injection of HiRet-GFP, performed T10 lateral hemisection, and then bilaterally injected recombinant IGF, OPN or OPN/IGF1 proteins were bilaterally injected into the cortex (FIG. 5A). In 3 days, the cortical sections from both injured and intact sides of adult mice were immunostained for three factors. Anti-IGFR, anti-phospho-IGFRβ, an indicator for the activation of the IGF-1 mediated signaling pathways (Hernandez-Sanchez et al., 1995; Siddle, 2012), and anti-phospho-S6 (p-S6), an established marker of mTOR activation, one of the downstream target of IGF1 mediated signaling pathways (Liu et al., 2010; Pollak, 2008).
(§4) Virus and Protein Injection. […]
(§5) Immunohistochemistry and Imaging. […] To quantify and compare fluorescence intensity of IGFR, pIGFRβ and pS6 in GFP+ CSNs (FIGS. 2C-2E), CST axons in the dorsal funiculus (FIG. 3G) and CD68 staining (FIG. 10F) and corticofugal projections at multiple subcortical areas (FIG. 7B), and axon density of the intact side in the spinal cord (FIGS. 8E and 8F), all images used for analysis under multiple conditions were taken using the same optical parameters and avoided for saturation. […]

For data set [6], the system named is p-IGFRβ. Briefly: phospho-IGFRβ immunostaining in corticospinal neurons after cortical injection of recombinant proteins, T10 lateral hemisection. Format: in vivo, mouse. The settings on record: intact or axotomized mature CSNs; recombinant protein alone.
Excerpt: as §3, §4, §5

The test system of data set [7] is CST axons. Briefly: CST regrowth (axon regeneration and midline-crossing sprouting) after T10 lateral hemisection. Format: in vivo, mouse. To be noted: AAV-expressed; for regrowth of injured CST axons at the lesion site: horizontal sections covering the lesion; for sprouting of intact CST axons across midline into the denervated side: spinal levels below the injury site. An excerpt: Since the mice treated with AAV-OPN/IGF1 were co-injected with AAV-channel rhodopsin (ChR2)-mCherry (AAV-ChR2-mCherry) or AAV-ChR2-YFP to the ipsi-lateral or contra-lateral cortex, respectively, at the termination of behavioral assessment, a post hoc examination of the T10 lateral hemisection histology was first performed. Mice with incomplete- or over-hemisection could be readily identified by analyzing labeled CST axons at the lumbar spinal cord and excluded from further analysis (FIG. 2A). CST regrowth was examined by preparing horizontal spinal cord sections covering the lesion sites to assess axon regeneration across the lesion site, and transverse sections of lower spinal cord segments to assess midline-crossing of CST axons from intact side. […] Thus, these sprouting axons play an important role in the observed functional recovery. Therefore, combined treatment of AAV-OPN and AAV-IGF1 not only promotes CST regrowth but also CST-dependent behavioral performance.
Axon Counting and Quantification. To quantify the number of sprouting axons, a horizontal line was firstly drawn through the central canal and across the lateral rim of the gray matter. Three vertical lines (Mid, Z1, and Z2) were drawn to divide the horizontal line into three equal parts, starting from the central canal to the lateral rim. While Mid denotes midline crossing fibers, Z1 and Z2 are for sprouting fibers at different distance from the midline. Only fibers crossing the three lines were counted on each section. The results were presented after normalization with the number of counted CST fibers at the medulla level.
For quantifying total labeled CST axon, AAV-ChR2-YFP (FIG. 4D) or AAV-ChR2-mCherry (FIGS. 4C, 7E and 8E) labeled CST fibers were counted at the level of medulla oblongata 1 mm proximal to the pyramidal decussation. Axons were estimated by counting 4 rectangular areas (about 10000 μm^2/area) per section on two adjacent sections.
To quantify the regenerating axons (FIG. 4D), the number of intersections of chR2-YFP-labeled fibers with a dorsal-ventral line positioned at a defined distance caudal from the lesion center was counted under a 25X objective. Fibers were counted on 3 sections with the main dorsal CST and 1-3 lateral sections with collaterals in the gray matter. The number of counted fibers was normalized by the number of labeled CST axons in the medulla and divided by the number of evaluated sections.

On to `CCCN(CCC)C1CCc2cccc(O)c2C1` (stereo not drawn) [8-OH-DPAT], for which, in data set [1], the “performance in irregular ladder, overground, or treadmill walking” value (from here on “performance … or treadmill walking”) was “failed to improve”.
Consider `Nc1ccncc1` [4-AP, 4-aminopyridine], for which, in data set [2], the “recovery of treadmill walking performance compared to the control” value is given as “neither 4-AP nor 4-AP-MeOH had significant effects”. Besides, the “error rates, irregular ladder walking task” value in data set [1] (1 mg/kg i.p., mice with OPN/IGF1 treatment) is “showed a trend of reducing the error rates in mice with OPN/IGF1 treatment, but failed to reach statistical significance”. Moreover, the “adverse effect at higher doses” value in data set [3] is given as “seizures”.
With “OPN: recombinant osteopontin (OPN) protein (Peprotech), injected into cortex or intravitreally”, the “error rate, irregular walking task, denervated hindlimb” value in data set [1] is recorded as about 70%. Further, in data set [4] (OPN with CNTF), the “effect of OPN added to CNTF on optic nerve axon regeneration” value is “no added effect”. Besides, the “effect of recombinant OPN protein on the optic nerve” value in data set [4] (intravitreal application, combined with IGF1 (FIG. 20)) is reported as “pro-regenerative effects”. The “effect on p-S6 levels” value in data set [5] was “not IGF1 or OPN alone”. In addition, the “effect on p-IGFRβ” value in data set [6] was “no overt effect”. Also, in data set [7], the “regrowth of injured CST axons at the lesion site” value was “significant die-back from the lesion site” and the “sprouting of intact CST axons across midline into the denervated side” value is “little sprouting across midline”.
Regarding `Oc1cc2c(c(Cl)c1O)CCNCC2c1ccccc1` (stereo not drawn) [SKF], the “performance … or treadmill walking” value in data set [1] is “failed to improve”. Further, the “hindlimb performance in irregular ladder walking on the denervated side” value in data set [1] (injured mice, i.p. 0.1 mg/kg) is on record as “deteriorated the hindlimb performance”.
For the molecule `c1ccc2nc(N3CCNCC3)ccc2c1` [quipazine], the “performance … or treadmill walking” value in data set [1] was “failed to improve”.
On to “IGF1: recombinant human insulin-like growth factor 1 (Peprotech)”, for which the “error rate, irregular walking task, denervated hindlimb” value in data set [1] is recorded as about 70%. Besides, the “dose dependence of the regenerative effect” value in data set [4] (combined with OPN) is “dosage dependent”. Besides, in data set [5], the “effect on p-S6 levels” value was “not IGF1 or OPN alone”. Moreover, in data set [6], the “effect on p-IGFRβ” value was “no overt effect”. Besides, in data set [7], the “regrowth of injured CST axons at the lesion site” value is listed as “significant die-back from the lesion site” and the “sprouting of intact CST axons across midline into the denervated side” value was “little sprouting across midline”.

B1: recombinant CNTF: recombinant CNTF protein injected after optic nerve crush (protein, UniProt P26441 1-200, looked up)
Ciliary neurotrophic factor: MAFTEHSPLTPHRRDLCSRSIWLARKIRSDLTALTESYVKHQGLNKNINLDSADGMPVASTDQWSELTEAERLQENLQAYRTFHVLLARLLEDQQVHFTPTEGDFHQAIHTLLLQVAAFAYQIEELMILLEYKIPRNEADGMPINVGDGGLFEKKLWGLKVLQELSQWTVRSIHDLRFISSHQTGIPARGSHYIANNKKM
On to B1, for which the optic nerve regeneration result in data set [4] (intravitreal AAV 2 weeks before crush, recombinant proteins at 0 and 7 days after crush (1 ul, 1 ug/ul), 14 days after crush) is recorded as “no effect”.
